In series [1] the target is Small conductance calcium-activated potassium channel protein 3 (Rattus norvegicus) (UniProt P70605). The series can be described thus: Inhibition of recombinant rat SK3 expressed in HEK293T cells assessed as inhibition of cell migration at 100 nM after 15 hrs by DAPI staining. It is filed as cell-based. Conditions: HEK-293T.
The test system of series [2] is HEK-293T. The series can be described thus: Effect on SK3 deficient HEK293T cell migration at 100 nM after 15 hrs by DAPI staining. It is filed as functional, cell-based. Conditions: Homo sapiens.
Series [3] relates to HEK-293T. The series can be described thus: Cytotoxicity against HEK293T cells expressing rat SK3 assessed as cell viability at 10 uM after 48 hrs by MTT assay. The series is classed as cell-based. Conditions: human. In general terms: Tetrazolium assays rely on reduction of a dye to a coloured formazan, in cell work by metabolically active cells.
For series [4], the target named is Small conductance calcium-activated potassium channel protein 3 (Rattus norvegicus) (UniProt P70605). The series can be described thus: Inhibition of recombinant rat SK3 expressed in HEK293T cells assessed as decrease in channel current amplitude at 0 mV holding potential at 10 uM measured for 3 mins by patch clamp assay relative to control. The series is classed as cell-based. Conditions: HEK-293T. On the technique in general: Patch clamp records ionic current or voltage across a cell membrane.

The nature of series [5]: Solubility of the compound in water. It is filed as physicochemical.

We go through 5 compounds from ChEMBL document CHEMBL3217534, “Glyco-Phospho-Glycero Ether Lipids (GPGEL): synthesis and evaluation as small conductance Ca2+-activated K+ channel (SK3) inhibitors” (Medchemcomm, 2012).

In brackets after ≈: the same amount, converted by molar mass. Activity calls are given as the source filed them. The calls are words filed in the database; no cut-off is given here.

Sequence of Small conductance calcium-activated potassium channel protein 3 (Rattus norvegicus) (P70605 whole entry): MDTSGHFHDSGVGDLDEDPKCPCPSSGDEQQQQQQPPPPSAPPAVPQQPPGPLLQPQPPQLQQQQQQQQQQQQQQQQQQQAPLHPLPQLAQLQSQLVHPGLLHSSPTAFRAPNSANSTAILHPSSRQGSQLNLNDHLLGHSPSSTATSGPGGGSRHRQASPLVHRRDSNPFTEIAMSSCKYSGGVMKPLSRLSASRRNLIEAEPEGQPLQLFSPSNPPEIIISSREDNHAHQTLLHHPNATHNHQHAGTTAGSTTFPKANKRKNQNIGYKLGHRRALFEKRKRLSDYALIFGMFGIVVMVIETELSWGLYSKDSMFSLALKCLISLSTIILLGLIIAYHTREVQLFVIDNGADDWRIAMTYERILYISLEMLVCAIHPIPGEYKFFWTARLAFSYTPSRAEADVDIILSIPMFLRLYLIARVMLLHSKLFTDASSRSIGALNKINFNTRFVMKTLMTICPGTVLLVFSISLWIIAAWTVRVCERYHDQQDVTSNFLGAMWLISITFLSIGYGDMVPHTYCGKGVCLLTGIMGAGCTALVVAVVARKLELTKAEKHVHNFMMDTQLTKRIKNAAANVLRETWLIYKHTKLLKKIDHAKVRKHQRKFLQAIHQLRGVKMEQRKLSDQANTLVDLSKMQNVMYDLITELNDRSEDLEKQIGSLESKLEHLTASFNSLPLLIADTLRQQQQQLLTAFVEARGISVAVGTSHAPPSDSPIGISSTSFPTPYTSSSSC

Broadly, the inhibition is the percentage by which the read-out fell short of the control. On to `CCCCCCCCCCCCCCCCOCC(COP(=O)(O)OC1O[C@H](CO)[C@@H](O[C@H]2O[C@H](CO)[C@@H](O)[C@H](O)[C@H]2O)[C@H](O)[C@H]1O)OC.CCN(CC)CC` (some centres not stated), for which the inhibition in series [1] was found to be 40%; in series [4] it was 60%. Also, in the series with HEK-293T [2], the outcome was inactive. Moreover, the Activity entry in the series on HEK-293T [3] is “Non-toxic”.

As for `CCCCCCCCCCCCCCCCOCC(COP(=O)(O)O[C@H]1O[C@H](CO)[C@@H](O[C@H]2O[C@H](CO)[C@@H](O)[C@H](O)[C@H]2O)[C@H](O)[C@H]1O)OC.CCN(CC)CC` (some centres not stated), the inhibition in series [1] worked out at 40%; in series [4], 70.8%. Besides, in the series on HEK-293T [2], the outcome was inactive. Moreover, the Activity entry with HEK-293T [3] is listed as “Non-toxic”.

A word on the solubility: it is the concentration that dissolves in the medium under given conditions. Read a high solubility as much dissolved substance. As for `CCCCCCCCCCCCCCCCOCC(CO[C@H]1O[C@H](CO)[C@@H](O[C@@H]2O[C@H](CO)[C@H](O)[C@H](O)[C@H]2O)[C@H](O)[C@H]1O)OC` (some centres not stated), in series [5], the concentration in solution (solubility) came to 9 µM (≈ 5.89 µg/mL). In addition, the inhibition worked out at 40% in series [1] and 73.2% in series [4]. In the series with HEK-293T [2], the result was inactive. In the series on HEK-293T [3], the Activity result is on record as “Non-toxic”.

In turn, `CCCCCCCCCCCCCCCCOCC(COP(=O)(O)OC1O[C@H](CO)[C@@H](O[C@@H]2O[C@H](CO)[C@H](O)[C@H](O)[C@H]2O)[C@H](O)[C@H]1O)OC.CCN(CC)CC` (some centres not stated) showed a solubility in series [5] of 16 µM. Moreover, the inhibition turned out to be 40% in series [1] and 69.2% in series [4]. The result with HEK-293T [2] was inactive. The Activity entry in the series with HEK-293T [3] was “Non-toxic”.

For `CCCCCCCCCCCCCCCCOCC(COP(=O)(O)OC1O[C@H](CO[C@H]2O[C@H](CO)[C@H](O)[C@H](O)[C@H]2O)[C@@H](O)[C@H](O)[C@H]1O)OC.CCN(CC)CC` (some centres not stated), the inhibition came out at 40% in series [1] and 65.5% in series [4]. Further, the outcome in the series with HEK-293T [2] was inactive. Besides, the Activity entry in the series with HEK-293T [3] is “Non-toxic”.
